Results from patent US7115707B2, “Amino acid sequences capable of facilitating penetration across a biological barrier” (Chiasma, Inc., priority 2002, dated 2006).
Values joined by “and” are separate entries in the source; they are usually repeats but may differ in a detail not shown here. Equal values may be shown once.

Tests used:
[1] = Insulin translocation with BKC as counter ion: blood glucose levels after i.p. or rectal administration (FIG. 4, Table 9); assay type: in vivo, male SD rats; conditions: rectal administration, rats, BKC counter ion (FIG. 4)
Experimental: (§1) SEQ ID NO: 36 (also called IBW-002V2) was hydrophobized via acylation of the free amino groups of the two lysine residues at the C-terminus of the penetrating peptide with a myristoyl. Acylation with myristoyl was achieved by incubating the peptide with myristoyl chloride in a molar ratio of 1:10, under basic pH conditions in the presence of appropriate solvents (benzyl benzoate and di-methyl formamide, with 1% bicarbonate). The hydrophobized peptide was then incorporated into the penetration composition, which further contained a lyophilizate of (1) insulin, (2) the counter cation Benzalkonium Chloride (BKC), and (3) phytic acid at a ratio of 1:0.5:0.5. Additional components of the penetration composition are specified in Table 8.
Twelve male SD rats, 160–190 gr, were deprived of food, 18 hours prior to the experiment. The animals were divided into groups. The preparations were administered as follows: Rats #1,2-rectal PBS 200 ul, rats #3,4-rectal 200 ul penetration composition as specified above without peptide (5 IU insulin), rat #5-i.p. 200 ul penetration composition with peptide (1 IU insulin), rats #6,7-rectal 200 ul penetration composition with peptide (5 IU insulin). Blood glucose levels were measured at various time intervals post administration, in blood samples drawn from the tip of the tail. Glucose levels were plotted against time post insulin administration (See FIG. 4).

[2] = Heparin translocation: clotting time after rectal administration of penetration composition; assay type: in vivo, male BALB/c mice; conditions: for Clotting time, measured at follow times after injection: 5 min / Clotting time, measured at follow times after injection: 15 min / Clotting time, measured at follow times after injection: 30 min / Clotting time, measured at follow times after injection: 60 min / Clotting time, measured at follow times after injection: 90 min / Clotting time, measured at follow times after injection: 120 min / Clotting time, measured at follow times after injection: 150 min / Clotting time, measured at follow times after injection: 0: rectal 100 μl/mouse, heparin 10 mg/ml composition, one mouse per line; for Clotting time, measured at follow times after injection: 60 min / Clotting time, measured at follow times after injection: 90 min / Clotting time, measured at follow times after injection: 120 min / Clotting time, measured at follow times after injection: 150 min: * = clotting appeared but did not progress
Experimental: as §1, with “36” for “36 (also called IBW-002V2)”, “heparin, and” for “a lyophilizate of (1) insulin, (2)”, “1-butyl-3-methylimidazolium chloride (BMIC).” for “Benzalkonium Chloride (BKC), and (3) phytic acid at a ratio of 1:0.5:0.5.”, “5.” for “8.”
Four male BALB/c mice, 9–10 weeks old, were deprived of food, 18 hours prior to the experiment. The mice were anesthetized by i.p. injection of 0.05 ml of a mixture of 0.15 ml xylazine+0.85 ml of ketamin. The penetration composition was then rectally administered to the mice, 100μl/mouse, using a plastic tip covered with a lubricant. Penetration was assessed via measurement of clotting time, at different time intervals after heparin administration. Five minutes post administration the tip of the tail was cut and a 50 μl blood sample was drawn into a glass capillary. The capillary was broken at different time intervals, until clot formation was observed. This was repeated at 15, 30, 60, 90, 120 and 150 minutes post administration. The animals were subsequently sacrificed.
In similar experiments, a control peptide (SEQ ID NO:16), lacking the penetrating peptide-sequence, was similarly hydrophobized and incorporated into the penetration composition of Table 5 and then rectally administered to the mice.

[3] = Insulin translocation with HMIC as counter ion: blood glucose levels after i.p. or rectal administration (FIG. 3); assay type: in vivo, male BALB/c mice; conditions: 70 ul/mouse, 0.2 IU insulin
Experimental: SEQ ID NO: 36 (also called IBW-002V2) and SEQ ID NO: 16 (also called IBW-001) were hydrophobized via acylation of the free amino groups of the two lysine residues at the C-terminus of the penetrating peptides with a myristoyl. Acylation with myristoyl was achieved by incubating the peptide with myristoyl chloride in a molar ratio of 1:10, under basic pH conditions in the presence of appropriate solvents (benzyl benzoate and di-methyl formamide, with 1% bicarbonate). The hydrophobized peptides were then incorporated into the penetration composition, which further contained insulin, and the counter cation 1-hexyl-3-methylimidazolium chloride (HMIC). Additional components of the penetration composition are specified in Table 7.
Eight male BALB/c mice, 9–10 weeks old, were deprived of food, 18 hours prior to the experiment. The animals were divided into 4 groups. Each preparation was administered to 2 groups of mice either i.p. (70 ul/mouse, containing 0.2 IU insulin) or rectal (70 ul/mouse, containing 0.2 IU insulin). Blood glucose levels were measured at various time intervals post administration, in blood samples drawn from the tip of the tail. Glucose levels were plotted against time post insulin administration (See FIG. 3).

Substance	blood glucose levels [1]	Clotting time, measured at follow times after injection: 5 min [2]	Clotting time, measured at follow times after injection: 15 min [2]	Clotting time, measured at follow times after injection: 30 min [2]	Clotting time, measured at follow times after injection: 60 min [2]	Clotting time, measured at follow times after injection: 90 min [2]	Clotting time, measured at follow times after injection: 120 min [2]	Clotting time, measured at follow times after injection: 150 min [2]	Clotting time, measured at follow times after injection: 0 [2]	blood glucose levels ([3]; i.p.)	blood glucose levels ([3]; rectal)	average clotting time ([2]; rectal, heparin composition of Table 5, compared to the full conjugate of the penetrating peptide)
AcMYYDITLALAGICQSARLVQQLAGGGKGGKNH2 (Ac-MYYDITLALAGICQSARLVQQLAGGGKGGK-NH2) [SEQ ID NO: 36, penetrating peptide]	dropped gradually and significantly	1′ (2×) and 2′ (2×)	1.5′ and 3′ and 1′ (2×)	1.5′ (2×) and 2′ and 3′	8′* and 9′* and 2.5′ and 6′	9′* (2×) and 7′* and 5′	15′* and 7′* and 3′ and 8′*	17′* and 9′* and 4′ and 6′	1.5′ (2×) and 1′ and 2.5′	dropped gradually and significantly	dropped gradually and significantly	–
GGKGGK (Linker) [SEQ ID NO: 16, reference compound]	–	1′	1′	2′	5′	4′	2′	3′	1′	significant drop	No change	only slightly elongated
